Laboratory results from paper PMC4783772, “PEGylated substrates of NSP4 protease: A tool to study protease specificity” (Scientific Reports, 2016).
Where two headings read alike, the source gives them in different places. Square brackets hold non-standard residues; d marks the D form. Side chains are listed from the residue outwards. Peptide text beside a SMILES is read from it. * marks the point of attachment. 2Abz = Nc1ccccc1C(=O)O; Cbz = O=C(OCc1ccccc1)*; Dap = NC[C@H](N)C(=O)O; X1 = N=C(N)NCCOCC(=O)*; AEEA = NCCOCCOCC(=O)O

Columns and labels:
hNSP4 [1] = assay: Proteolytic cleavage pattern / stability with hNSP4 by HPLC; format: biochemical, human; details: hNSP4 14 nM, RP-HPLC; for stability of the cleaved fluorescent fragment with hNSP4: up to 48 h
Protocol: Figure 4 HPLC analysis of substrate 1 (1.97 μM) incubated with hNSP4 (14 nM) at different time points: 0, 15 min, 24 h and 48 h.
For each sample of diluted substrate (concentrations 1.97 × 10^−6 M), the appropriate amount of enzyme (1.46 × 10^−8 M) was added, and the solution was incubated for 5, 30, and 60 min. The progress of the proteolytic reaction was monitored by RP-HPLC. The individual peaks resulting from the hydrolysis reaction were collected and identified using the mass spectra which were recorded on a Biflex III MALDI TOF mass spectrometer (Bruker Daltonics, Germany) using α-cyano-4-hydroxycinnamic acid as a matrix.

human NSP4 [2] = target: T1, human NSP4 (Homo sapiens, UniProt Q6UWY2); assay: Determination of kinetic parameters (KM, kcat, kcat/KM) of substrate hydrolysis by NSP4; format: biochemical; details: for kcat/KM: calculated from kcat and KM values
T1 construct: made in house; host or cells: Pichia pastoris
Protocol: (§1) For the enzymatic studies, we used human NSP4 expressed in a Pichia pastoris expression system as described in ref. [15]. The NSP4 concentration used in the deconvolution of the library was […]. The bovine β-trypsin (Sigma Chem. Co., USA) concentration was determined by spectrophotometric titration with 4-nitrophenyl-4′-guanidinobenzoate (NPGB) at an enzyme concentration oscillating around 10^−6 M. Standardized trypsin solution was used to titrate BPTI (Sigma Chem. Co., USA) which in turn served to determine the solution concentrations of the produced NSP4. The substrate ABZ-Met-Phe-Pro-Arg-ANB-NH2 recently developed in our lab was used. The deconvolution of peptide libraries was carried out by the iterative solution method. The lyophilizates obtained for each sublibrary were dissolved in dimethyl sulfoxide (DMSO) to a final concentration of 5 mg/ml, and then diluted tenfold in an assay buffer. The fluorescence tests were performed using a FluoroStar OMEGA fluorescent microplate reader (BMG, Germany). The excitation and emission wavelengths were 320 nm and 410 nm for the ABZ/ANB. Enzymatic hydrolysis of the peptide was performed in 20 mM Tris-Cl buffer supplemented by 150 mM NaCl (pH 7.4) at 37 °C and continued over 30 min.
Assay conditions for the determination of the Michaelis constants (KM) and catalytic constants (kcat) were as noted above. The specificity constants (kcat/KM) were calculated from kcat and KM values. Measurements were performed with an enzyme concentration of 1.46 × 10^−9 M. Three to five measurements were carried out for each compound (systematic error expressed as a standard deviation never exceeded 20%). The calculated initial hydrolysis rates were used as a measure of the substrate activity of the investigated peptides. All details of kinetic studies and the method of calculating kinetic parameters have been described elsewhere.

human NSP4 [3] = target: T1, human NSP4; assay: Iterative deconvolution in solution of library ABZ-X4-X3-X2-Arg-ANB-NH2 against NSP4; format: biochemical; details: ABZ-Dap(O2(Cbz))-Dap(Cbz)-X2-Arg-ANB-NH2, 18 individual peptides; 3.4 × 10^−5 M, NSP4 1.46 × 10^−8 M (Figure 3); pH 7.4, 37 °C, 30 min; fluorescence
Protocol: In order to construct a novel type of internally quenched library, we used different monoprotected heterobifunctional PEG moieties to diversify a library based on a diaminopropionic acid scaffold (Fig. 1 presents the library formula and its chemical components). The library was synthesized using the mix and split method via Fmoc chemistry. The formation of Dap-PEG conjugates was performed on resin via a submonomeric method (one example of DAPEG-based molecule synthesis is presented in Fig. 2). Our goal was to investigate P2, P3, and P4 subsite preferences with a fixed P1 position occupied by an Arg residue. Each peptide in the library was flanked by a C-terminal amide of 5-amino-2-nitrobenozic acid (acceptor of fluorescence) and an N-terminal 2-amino benzoic acid (fluorescence donor) pair which allowed for simultaneous UV and fluorescence monitoring. Screening process was performed using an iterative mode of deconvolution in solution.
Figure 3 The deconvolution of the library (at average concentration 3.4 × 10^−5 M) with general formula ABZ-X4-X3-X2-Arg-ANB-NH2 against NSP4 (1.46 × 10^−8 M).
For the enzymatic studies, we used human NSP4 expressed in a Pichia pastoris expression system as described in ref. [15]. […] The fluorescence tests were performed using a FluoroStar OMEGA fluorescent microplate reader (BMG, Germany). […]

cathepsin G (CatG) = assay: Selectivity: incubation with cathepsin G; format: biochemical, human; details: substrate 1.97 μM; CatG 10^−8 M, 8.7 nM (Figure 5A legend); pH 7.4, 37 °C, 30 min
Protocol: (§2) Figure 5 Incubation of substrate 1 (1.97 μM) with (A) neutrophil serine proteases (cathepsin G, elastase, and proteinase 3) at a concentration of 8.7 nM; (B) set of blood-associated proteases involving cathepsins and kallikreins.
as §1, with “Enzymatic hydrolysis of the peptide was performed in 20 mM Tris-Cl buffer supplemented by 150 mM NaCl (pH 7.4) at 37 °C and continued over 30 min.” left out

[4] = system: human neutrophil elastase (HNE); assay: Selectivity: incubation with neutrophil elastase; format: biochemical; details: substrate 1.97 μM; HNE 10^−8 M, 8.7 nM (Figure 5A legend); pH 7.4, 37 °C, 30 min
Protocol: as §2
as §1, with “Enzymatic hydrolysis of the peptide was performed in 20 mM Tris-Cl buffer supplemented by 150 mM NaCl (pH 7.4) at 37 °C and continued over 30 min.” left out

proteinase 3 (PR3) = assay: Selectivity: incubation with proteinase 3; format: biochemical, human; details: substrate 1.97 μM; PR3 10^−8 M, 8.7 nM (Figure 5A legend); pH 7.4, 37 °C, 30 min
Protocol: as §2
as §1, with “Enzymatic hydrolysis of the peptide was performed in 20 mM Tris-Cl buffer supplemented by 150 mM NaCl (pH 7.4) at 37 °C and continued over 30 min.” left out

KLK14 = assay: Selectivity: incubation with KLK14; format: biochemical, human; details: substrate 1.97 μM; Figure 5B; pH 7.4, 37 °C, 30 min
Protocol: as §2
as §1, with “Enzymatic hydrolysis of the peptide was performed in 20 mM Tris-Cl buffer supplemented by 150 mM NaCl (pH 7.4) at 37 °C and continued over 30 min.” left out

[5] = system: set of proteases related to blood cells, including cathepsins and kallikreins; assay: Selectivity: set of blood-associated proteases (cathepsins and kallikreins); format: biochemical; details: substrate 1.97 μM, enzymes 10^−8 M, Figure 5B, pH 7.4, 37 °C, 30 min
Protocol: as §2
as §1, with “Enzymatic hydrolysis of the peptide was performed in 20 mM Tris-Cl buffer supplemented by 150 mM NaCl (pH 7.4) at 37 °C and continued over 30 min.” left out

hNSP4 [6] = assay: Detection limit of hNSP4 with substrate 1; format: biochemical, human
Protocol: The incubation of substrate 1 with decreasing amounts of hNSP4 yielded a visible fluorescence (signal-to-noise ratio of 3:1) at 10^−11 M of the studied enzyme (Fig. S8).
as §1, with “Enzymatic hydrolysis of the peptide was performed in 20 mM Tris-Cl buffer supplemented by 150 mM NaCl (pH 7.4) at 37 °C and continued over 30 min.” left out

NSP4 [7] = assay: NSP4-mediated proteolysis of substrate 1 in the selectivity panel; format: biochemical, human; details: substrate 1 1.97 μM; Figure 5
Protocol: as §2
as §1, with “Enzymatic hydrolysis of the peptide was performed in 20 mM Tris-Cl buffer supplemented by 150 mM NaCl (pH 7.4) at 37 °C and continued over 30 min.” left out

[8] = qualitative statement
NSP4 [9] = details: cited from earlier work
Description: Table 2 Kinetic parameters of reported artificial substrates of NSP4. | column: kcat [s^−1]; KM [μM]; kcat/KM M^−1 × s^−1

[10] = 20 mM Tris-Cl, 150 mM NaCl, pH 7.4, 37 °C, NSP4 1.46 × 10^−9 M, fluorescence ex 320 / em 410 nm, three to five measurements, SD never exceeded 20%

T1 sequence (Q6UWY2 32-283): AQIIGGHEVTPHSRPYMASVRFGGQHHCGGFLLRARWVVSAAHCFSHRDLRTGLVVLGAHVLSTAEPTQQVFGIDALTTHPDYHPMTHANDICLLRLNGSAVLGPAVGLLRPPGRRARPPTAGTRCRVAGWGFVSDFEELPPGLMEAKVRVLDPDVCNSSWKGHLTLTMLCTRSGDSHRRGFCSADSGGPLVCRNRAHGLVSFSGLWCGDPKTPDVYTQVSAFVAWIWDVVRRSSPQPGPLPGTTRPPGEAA

## N=C(N)NCCC[C@H](NC(=O)[C@H](CNC(=O)COCCNC(=N)N)NC(=O)[C@H](CNC(=O)OCc1ccccc1)NC(=O)[C@H](CNC(=O)COCCOCCNC(=O)OCc1ccccc1)NC(=O)c1ccccc1N)C(=O)O [ABZ-Dap(O2(Cbz))-Dap(Cbz)-Dap(GO1)-Arg-OH] (H-[2Abz][Dap]([AEEA-Cbz])[Dap](Cbz)[Dap](X1)R-OH)
hNSP4 [1]
  stability of the cleaved fluorescent fragment with hNSP4: no further degraded up to 48 h
hNSP4 [1]; listed as cleaved N-terminal fragment of the peptidomimetic chain
  stability of the cleaved fluorescent fragment with hNSP4: exceptional proteolytic stability

## ABZ-Dap(O2(Cbz))-Dap(Cbz)-Dap(GO1)-Arg-ANB-NH2 [substrate 1]
Human NSP4 [2]; [10]
  Km: 7.6 ± 0.5 µM
  kcat: 1 s⁻¹
Human NSP4 [2]; 20 mM Tris-Cl, 150 mM NaCl, pH 7.4, 37 °C, NSP4 1.46 × 10^−9 M, fluorescence ex 320 / em 410 nm, three to five measurements, SD never exceeded 20%, listed as ABZ-Dap(O2(Cbz))-Dap(Cbz)-Dap(GO1)-Arg-ANB-NH2
  kcat: 1.0 ± 0.1 s⁻¹
Human NSP4 [2]; pH 7.4, 37 °C, NSP4 1.46 × 10^−9 M
  kcat/KM: 130000 M⁻¹ s⁻¹
Human NSP4 [2]; pH 7.4, 37 °C, NSP4 1.46 × 10^−9 M, listed as ABZ-Dap(O2(Cbz))-Dap(Cbz)-Dap(GO1)-Arg-ANB-NH2
  kcat/KM: 131,579 M^−1 × s^−1
Human NSP4 [2]; pH 7.4, 37 °C, NSP4 1.46 × 10^−9 M, listed as the developed compound
  kcat/KM: over 1.31 × 10^5 M^−1 × s^−1
Human NSP4 [2]; comparison with literature substrate, Kasperkiewicz et al.[19]
  specificity (kcat/KM) relative to substrate selected by Kasperkiewicz et al. [19]: 4 times higher
Human NSP4 [3]
  proteolysis / fluorescent intensity, peptides modified at X2: most susceptible for NSP4-mediated proteolysis
Cathepsin G (CatG)
  proteolysis by CatG: no visible proteolysis
[4]
  proteolysis by HNE: no visible proteolysis
Proteinase 3 (PR3)
  proteolysis by PR3: no visible proteolysis
KLK14
  degradation by KLK14 compared with NSP4: to a much lesser extend to degradation by KLK14
[5]
  cleavage by other blood-associated proteases: No other proteolytic enzyme at a concentration of 10^−8 M was able to cleave any of the peptide bonds
hNSP4 [6]; NSP4 detection with substrate 1
  detection limit in words: subnanomolar
hNSP4 [6]; signal-to-noise ratio of 3:1, constant amount of substrate 1, decreasing amounts of hNSP4, Fig. S8
  detection limit (hNSP4 concentration giving visible fluorescence): 10^−11 M
hNSP4 [1]; substrate 1 1.97 μM, 0, 15 min, 24 h, 48 h, MS identification
  cleavage site by hNSP4: cleavage of the peptide bond located between Arg and ANB-NH2
NSP4 [7]
  susceptibility to NSP4-mediated proteolysis: susceptible to NSP4-mediated proteolysis
[8]
  solubility in water: excellent solubility in water

## Ac-hCha-Phe(4-guanidine)-Oic-Arg-ACC
NSP4 [9]; ref [19]
  Km: 61 ± 9.1 µM
  kcat: 2.0 ± 0.5 s⁻¹
  kcat/KM: 32,786 M^−1 × s^−1

## MCA-PEG-Ile-Arg-Arg-Ser-Ser-Tyr-Ser-Phe-Lys(Dnp)-Lys
NSP4 [9]; ref [18]
  Km: 13.8 ± 3.3 µM
  kcat: 0.136 ± 0.008 s⁻¹
  kcat/KM: 10,000 M^−1 × s^−1
